Assay results as given in patent US20230060820A1, “OCTENIDINE SALT ANTIMICROBIAL MEDICAL ARTICLES” (3M INNOVATIVE PROPERTIES COMPANY, priority 2019, published 2023).
Structures can show the parent of a compound that is named as a salt. Where two headings read alike, the source gives them in different places.

Key:
[1] = cited from earlier work; for Solubility: previous reports
[2] = Solubilization of octenidine hydrochloride in solvents (homogeneous solution); format: physicochemical; details: for Homogeneous solution: 10% (w/w), room temperature 20-25° C.
Description: Previous reports have shown that octenidine hydrochloride is soluble in both propylene glycol and ethylhexylglycerine, both of which are diol solvents. Hydrogen-bonding solvents with different functionalities were tested for their ability to solvate octenidine hydrochloride. Each solvent was combined with octenidine hydrochloride at 10% (w/w) with mixing at room temperature, i.e., 20-25° C. In some cases, sonication and/or heat were added to hasten dissolution.

[3] = higher than chlorhexidine; cited from earlier work

Compound: N=C(NCCCCCCNC(=N)NC(=N)Nc1ccc(Cl)cc1)NC(=N)Nc1ccc(Cl)cc1.O=C(O)[C@H](O)[C@@H](O)[C@H](O)[C@H](O)CO.O=C(O)[C@H](O)[C@@H](O)[C@H](O)[C@H](O)CO [chlorhexidine gluconate, Chlorhexidine digluconate]
- Homogenous solution formation ([1]; in glycol fatty monoesters, known): do not form homogenous solutions

Compound: CCCCCCCCN=c1ccn(CCCCCCCCCCn2ccc(=NCCCCCCCC)cc2)cc1 [octenidine hydrochloride, Octenidine hydrochloride]
- Homogeneous solution ([2]; in 2-octyldodecanol): No
- Homogeneous solution ([2]; in glycerol monocaprylate): Yes
- Homogeneous solution ([2]; in glycerol monoisostearate): Yes
- Solubility ([2]; in glycol fatty monoesters): soluble
- Homogeneous solution ([2]; in lauramide diethanolamine): Yes
- Homogeneous solution ([2]; in methoxyisopropanol): Yes
- Homogeneous solution ([2]; in propylene glycol dicaprylate/caprate): No
- Homogeneous solution ([2]; in propylene glycol monoheptanoate): Yes
- Homogeneous solution ([2]; in propylene glycol monolaurate): Yes
- Homogeneous solution ([2]; in propylene glycol): Yes
- Solubility ([2]; in the glycol fatty diester): insoluble
- Solubility ([2]; in the monohydric alcohol): insoluble
- Solubility ([1]; in ethylhexylglycerine): soluble
- Solubility ([1]; in propylene glycol): soluble
- Antimicrobial efficacy relative to chlorhexidine [3]: 3-10 times
